Patent US20220257710A1, “ANTI-INFECTION EFFECTS OF HNRNPA2B1 AND USE THEREOF” (INSTITUTE OF BASIC MEDICAL SCIENCES, CHINESE ACADEMY OF …, priority 2019, published 2022)

Tested on: HSV-1 DNA
Assay: Immunoprecipitation of nuclear protein with anti-hnRNPA2B1 antibody and PCR detection of HSV-1 DNA
Format: binding, HSV-1 (strain F)
Settings: mouse primary peritoneal macrophages, 2 hours after HSV-1 infection, PCR
Description: Obtaining the primary peritoneal macrophages of mice: C57BL/6 mice (6-8 weeks old, female, Shanghai Bikai Experimental Animal Co., Ltd.) were intraperitoneally injected with 2 ml of 3% mercaptoacetate (Sigma Aldrich) solution once. Three days later, the mice were sacrificed by cervical dislocation, and the abdominal cavity was washed with serum-free medium, sucked out and centrifuged to obtain cells.
The primary peritoneal macrophage cells were cultured in DMEM medium. After HSV-1 (strain F, ATCC) infection for 2 hours, nuclear protein was isolated and immunoprecipitated by anti-hnRNPA2B1 antibody (Santa Cruz) or control antibody (IgG, Santa Cruz). HSV-1 DNA was detected by PCR.

hnRNPA2B1: heterogeneous nuclear ribonucleoprotein A2B1; endogenous nuclear protein of mouse macrophages precipitated by anti-hnRNPA2B1 antibody
binding of hnRNPA2B1 to HSV-1 DNA: bound
